Where two headings read alike, the source gives them in different places.
Columns and labels:
P. falciparum 3D7 = experiment: Hypoxanthine incorporation growth inhibition assay, asexual blood stage, wild-type 3D7; type: cell-based, Plasmodium falciparum; conditions: 3D7 asexual blood stage growth, 72 h, +/- s.e.m.; for EC50: read-out: EC50 WT
Experimental: Hypoxanthine incorporation assays[36] were performed on P. falciparum asexual blood stage parasites (wild-type 3D7 or T618Q gatekeeper mutant) to determine EC50 values for test compounds. Mixed staged parasites (primarily rings) were added to 96 well plates containing compounds at concentrations of 50 μM–0.3 nM. […] Assays were carried out in triplicate at least twice.

[1] = system: P. falciparum T618Q gatekeeper mutant line; experiment: Hypoxanthine incorporation growth inhibition assay, asexual blood stage, T618Q gatekeeper mutant line; type: cell-based, Plasmodium falciparum; conditions: for EC50 / EC90: T618Q clonal line asexual blood stage growth, 72 h, +/- s.e.m.
Experimental: We determined that a 72 h P. falciparum (clone 3D7A; obtained from Lisa Ranford Cartwright, University of Edinburgh) growth inhibition assay was necessary for full inhibition to manifest itself and that this is due, most likely to a schizont-specific action rather than a delayed death phenotype as observed for some antibiotic macrocycles. Hypoxanthine incorporation assays[36] were performed on P. falciparum asexual blood stage parasites (wild-type 3D7 or T618Q gatekeeper mutant) to determine EC50 values for test compounds. Mixed staged parasites (primarily rings) were added to 96 well plates containing compounds at concentrations of 50 μM–0.3 nM. [^3H]-Hypoxanthine was added after 48 h to a final concentration of 0.2 μCi. The radioactivity of the labeled hypoxanthine incorporated into the parasite nucleic acids over 24 h was determined relative to untreated controls using a Wallac 1450 Microbeta scintillation counter (Perkin-Elmer). Assays were carried out in triplicate at least twice.

[2] = Stability in mouse liver microsomes; conditions: mouse, microsomes, 0.5 h
Experimental: (§1) Compound mlm hlm mLogD PAMPA HepG2 name (%rem) (%rem) (nm/s) (IC50 µM)
(§2) Supplementary Table 2. Compound Properties. MLM, HLM, mLogD and PAMPA . mlm (%rem): % of compound remaining after 30 minutes’ incubation with mouse liver microsomes; hlm (%rem): % of compound remaining after 40 minutes’ incubation with human liver microsomes; mLogD: measured LogD at pH 7.4; PAMPA: parallel artificial membrane permeability assay; HepG2: Cytotoxicity assay using HepG2 cells; n.t.: not tested.

[3] = Stability in human liver microsomes; conditions: human, microsomes, 40 min
Experimental: as §1, §2

physchem = conditions: pH 7.4
Experimental: as §1, §2

[4] = Parallel artificial membrane permeability assay (PAMPA); type: in vitro ADME
From the text: Compound mlm hlm mLogD PAMPA HepG2
name (%rem) (%rem) (nm/s) (IC50 µM)
Supplementary Table 2. Compound Properties. MLM, HLM, mLogD and PAMPA . mlm

PfPKG = PfPKG (Plasmodium falciparum, UniProt Q8I719); experiment: Microfluidic mobility shift kinase assay, recombinant PfPKG wild type; conditions: read-out: IC50 WT; recombinant full length 6His-tagged PfPKG; ATP at KM (20 µM); +/- s.e.m.
PfPKG, sequence (Q8I719 whole entry): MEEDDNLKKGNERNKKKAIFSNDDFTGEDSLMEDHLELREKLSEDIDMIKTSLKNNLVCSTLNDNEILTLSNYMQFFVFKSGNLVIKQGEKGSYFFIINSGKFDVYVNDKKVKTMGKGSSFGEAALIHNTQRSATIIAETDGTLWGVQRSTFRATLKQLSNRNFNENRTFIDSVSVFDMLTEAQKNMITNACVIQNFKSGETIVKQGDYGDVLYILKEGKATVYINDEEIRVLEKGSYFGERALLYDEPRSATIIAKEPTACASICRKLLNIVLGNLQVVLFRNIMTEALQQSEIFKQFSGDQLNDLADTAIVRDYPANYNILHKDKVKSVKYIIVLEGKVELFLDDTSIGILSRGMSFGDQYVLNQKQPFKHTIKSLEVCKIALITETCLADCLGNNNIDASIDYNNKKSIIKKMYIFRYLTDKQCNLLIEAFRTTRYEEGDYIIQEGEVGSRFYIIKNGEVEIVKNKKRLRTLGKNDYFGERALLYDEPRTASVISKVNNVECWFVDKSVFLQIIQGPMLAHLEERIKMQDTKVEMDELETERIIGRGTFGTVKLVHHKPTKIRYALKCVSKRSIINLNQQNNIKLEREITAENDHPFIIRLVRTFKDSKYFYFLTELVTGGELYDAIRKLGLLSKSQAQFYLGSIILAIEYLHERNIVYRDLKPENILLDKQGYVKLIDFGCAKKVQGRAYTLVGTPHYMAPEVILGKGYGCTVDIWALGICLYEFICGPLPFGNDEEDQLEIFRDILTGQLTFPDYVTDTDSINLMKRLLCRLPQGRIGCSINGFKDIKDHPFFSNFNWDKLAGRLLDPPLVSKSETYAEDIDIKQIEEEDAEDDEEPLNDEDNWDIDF
Experimental: (§3) Full length PfPKG (NCBI accession code XP_001348520) with native codon usage was cloned into the pTrcHisC plasmid (Life Technologies) that includes an N-terminal His-tag as described previously[8]. […] Recombinant proteins were generated and purified using a protocol based on that described previously[8]. […] 500 ml cultures in LB Rich Broth (containing 50 μg/ml carbenicillin and 34 μg/ml chloramphenicol) were grown in a shaking incubator at 37 °C until reaching an optical density (O.D.) of 0.6–0.7. The temperature was reduced to 16 °C before induction of expression with 1 mM IPTG. Incubation at 16 °C was continued overnight.
(§4) The cultures were harvested by centrifugation at 4000×g at 4 °C for 30 min, the supernatant removed and the pellet stored at −80 °C for in excess of 1 h. The PKGs were purified via the histidine tag on HiTrap TALON (cobalt) columns (GE Healthcare) connected to an AKTA-FPLC as per the manufacturer's instruction. Fractions were analyzed by SDS-PAGE and the main peak concentrated on 10 kDa MWCO concentrators (Amicon). Purified proteins were stored in 50% glycerol at −80 °C in single use aliquots. The final buffer composition of the purified product was: 50 mM Tris/HCl pH 7.5, 0.1 mM EGTA, 150 mM NaCl, 0.1% β-mercaptoethanol, 50% glycerol, 0.03% Brij-35, 1 mM benzamidine and 0.2 mM PMSF.
(§5) IC50 values were determined for test compounds using a microfluidic mobility shift assay. Briefly, compounds were prepared over a 10-well ½ log dilution series in dimethyl sulfoxide (DMSO) in duplicate in 50 μl volumes using 384-well polypropylene U-bottomed plates (Thermo Scientific, UK). The plates contained positive/no inhibitor (DMSO only) and negative (no enzyme) controls in columns 1, 2, and 23, 24. […] Samples were pre-incubated at room temperature for 30 min and reactions were initiated by addition of 25 μl ATP mix (10 mM MgCl2 and ATP, at KM of the enzyme under test [20 µM PfPKG and 90 µM PfPKG T618Q], in water). Positive controls were complete reaction mixtures with 10% DMSO and negative controls were reaction mixtures with 10% DMSO but lacking enzyme. Reactions were allowed to proceed for 30 mins at room temperature, corresponding to conversion of approximately 10% of the substrate in the DMSO controls. Reactions were terminated by addition of 50 µl stop solution (25 mM EDTA in water). Samples were analyzed by electrophoretic separation of substrate and product peaks and fluorescence detection using a Caliper Lab Chip EZ reader. (Perkin Elmer, Waltham MA) with 0.2 s sip time, downstream voltage 500 V, upstream voltage 1950 V and pressure 0.5 to 1.5 psi. Substrate and product peak heights were measured and the ratio of the product peak height divided by the sum of the product and substrate peaks were determined using EZ reader software (version 3.0.265.0) to obtain percentage conversion (P) values. […] Liquid handling stages were conducted on a Biomek robotic liquid handler (Beckman Coulter).

PfPKG T618Q = PfPKG T618Q (Plasmodium falciparum, UniProt Q8I719, T618Q); experiment: Microfluidic mobility shift kinase assay, recombinant PfPKG T618Q gatekeeper mutant; conditions: read-out: IC50 T618Q; recombinant PfPKG T618Q; ATP at KM (90 µM); +/- s.e.m.
PfPKG T618Q, sequence (Q8I719 whole entry T618Q): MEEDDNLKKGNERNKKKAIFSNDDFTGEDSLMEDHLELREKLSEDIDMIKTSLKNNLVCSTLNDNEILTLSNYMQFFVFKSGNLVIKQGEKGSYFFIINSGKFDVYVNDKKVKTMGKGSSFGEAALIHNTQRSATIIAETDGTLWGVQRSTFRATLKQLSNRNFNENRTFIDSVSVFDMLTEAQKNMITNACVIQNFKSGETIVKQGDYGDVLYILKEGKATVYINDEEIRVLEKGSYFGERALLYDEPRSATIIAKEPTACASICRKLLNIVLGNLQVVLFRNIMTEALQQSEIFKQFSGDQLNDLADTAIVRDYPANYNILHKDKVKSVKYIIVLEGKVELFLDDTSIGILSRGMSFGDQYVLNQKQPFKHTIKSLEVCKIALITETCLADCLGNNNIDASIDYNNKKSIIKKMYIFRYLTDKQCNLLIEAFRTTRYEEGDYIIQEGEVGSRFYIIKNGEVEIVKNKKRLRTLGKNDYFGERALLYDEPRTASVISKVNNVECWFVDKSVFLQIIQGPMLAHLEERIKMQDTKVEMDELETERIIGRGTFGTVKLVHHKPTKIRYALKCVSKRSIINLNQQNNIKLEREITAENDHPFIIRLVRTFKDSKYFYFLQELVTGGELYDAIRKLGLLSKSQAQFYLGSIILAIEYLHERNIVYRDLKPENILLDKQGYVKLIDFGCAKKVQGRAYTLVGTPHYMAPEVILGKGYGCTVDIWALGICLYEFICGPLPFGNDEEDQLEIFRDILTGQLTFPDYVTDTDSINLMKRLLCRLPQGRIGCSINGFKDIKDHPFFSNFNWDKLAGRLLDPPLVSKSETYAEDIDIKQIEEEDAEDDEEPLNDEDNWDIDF
Experimental: as §3, §4, §5

HepG2 cells = experiment: Cytotoxicity assay using HepG2 cells
Experimental: as §1, §2

[5] = system: P. falciparum lab isolate Dd2; experiment: In vitro selection of resistant parasites; type: cell-based, Plasmodium falciparum; conditions: 3× EC50, 10^9 parasites, up to Day 60
Experimental: P. falciparum lab isolate Dd2 (from stocks held at LSHTM) was used for this experiment and the control compound used was atovaquone. Parasites were plated in triplicate at 10^9 parasites/well and maintained until parasites were observed microscopically (using Giemsa-stained blood films) or until Day 60 whichever was the soonest. […]. Gametocytes were present initially but were absent from Day 11.

[6] = Plasma levels in satellite groups of mice, P. berghei experiment; type: in vivo, mouse; conditions: mice, oral 25 mg/kg, P. berghei experiment
From the text: Supplementary Figure 4. Plasma concentrations over time in rodent malaria models. […] Error bars show the standard deviation. (1 picture or pasted object on this page, not shown here)

P. chabaudi (AS) = experiment: Synchronous P. chabaudi AS model in BALB/c mice; type: in vivo, Plasmodium chabaudi; conditions: single daily oral dose 50 mg/kg just prior to schizogony, 4 days
Experimental: Similar experiments were performed using P. chabaudi AS (from David Walliker, University of Edinburgh) with the following modifications. To allow dosing to be carried out more conveniently during the day, reversal of the light/dark exposure of mice for 2 weeks prior to the experiment was used to switch schizogony from midnight to noon each day. Mice were dosed at different time points in an attempt to have maximal coverage at the point of schizogony. All animal work protocols carried out at LSHTM were approved and licensed by the United Kingdom Home Office as governed by law under the Animals (Scientific Procedures) Act of 1986, in strict accordance with the Code of Practice Part 1 for the housing and care of animals (21 March 2005), available at http://www.homeoffice.gov.uk/science-research/animal-research/

[7] = system: P. falciparum (NF54) gametocytes; experiment: Standard membrane feeding assay (SMFA), gametocytes fed to Anopheles stephensi; type: cell-based, Plasmodium falciparum; conditions: gametocytes pre-incubated 24 h, oocysts counted day 7 post-feed; read-out: IC50 for reduction of the intensity of infection (oocysts)
Experimental: Mature P. falciparum (NF54) gametocytes (14 day culture, 0.3–0.5% gametocytes, 2% haematocrit) were obtained from an automated tipper system and incubated with compound for 24 h as previously described. Anopheles stephensi (Sind-Kasur Nijmegen strain[39] were reared at 30 °C and 70–80% humidity, while exposed to a 12/12 h day/night cycle. On the day of feeding, the gametocyte culture was adjusted to 50% hematocrit with human red blood cells and human serum and fed to 3–5 day old mosquitoes using a glass membrane mini-feeder system containing 0.35 ml of the P. falciparum culture/compound mix[40]. Unfed and partially fed mosquitoes were removed after feeding and blood fed females were maintained at 26 °C and 70–80% humidity. Up to 20 surviving mosquitoes were collected on day 7 post-infection and oocysts were visualized using a 1% merchurochrome solution and quantified by microscopy. IC50 values were determined by logistic regression using Maximum Likelihood Estimation to find best fit[41].

| SMILES | EC90 (P. falciparum 3D7) | EC50 (P. falciparum 3D7) | EC50 [1] | EC90 [1] | mlm (%rem) [2] | hlm (%rem) [3] | mLogD (physchem) | PAMPA [4] | IC50 (PfPKG) | IC50 (PfPKG T618Q) | IC50 (HepG2 cells) | EC50 (P. falciparum 3D7; Plasmodium falciparum, 3D7, 72 h) | sensitivity of gatekeeper mutant line compared with wild type (control drugs) ([1]; tested in parallel on both parasite lines) | selection of resistant parasites [5] | plasma half-life [6] | reduction in blood stage parasitaemia (P. chabaudi (AS)) | IC50 [7] |
| --- | --- | --- | --- | --- | --- | --- | --- | --- | --- | --- | --- | --- | --- | --- | --- | --- | --- |
| Cc1cn2c(-c3ccnc(N)n3)c(-c3ccc(F)c(NS(C)(=O)=O)c3)nc2cc1CN(C)C [ML9] | 158 nM | 105 nM | 6900 nM | 48300 nM | 81% | 86% | 1.6 | 1.08 ×10⁻⁶ cm/s | 1.19 nM | > 100000 nM | – | – | – | – | – | – | – |
| CN(C)Cc1ccn2c(-c3ccnc(NCC4CC4)n3)c(-c3cccc(S(C)(=O)=O)c3)nc2c1 [ML6] | 142 nM | 102 nM | 1860 nM | 3490 nM | 62% | 72% | 2.3 | 11.45 ×10⁻⁶ cm/s | 0.13 nM | 52500 nM | > 20000 nM | – | – | – | – | – | – |
| CN(C)Cc1ccn2c(-c3ccnc(N)n3)c(-c3cccc(NS(C)(=O)=O)c3)nc2c1 [ML7] | 633 nM | 489 nM | 35100 nM | 60700 nM | 96% | 82% | 1.6 | 0.64 ×10⁻⁶ cm/s | 4.34 nM | > 100000 nM | > 20000 nM | – | – | – | – | – | – |
| CCc1nc(N)nc(N)c1-c1ccc(Cl)cc1 [Pyrimethamine, reference compound] | – | – | – | – | – | – | – | – | – | – | – | 43.3 ± 5.9 nM | resistant | – | – | – | – |
| O=C1C(O)=C([C@H]2CC[C@H](c3ccc(Cl)cc3)CC2)C(=O)c2ccccc21 [atovaquone] | – | – | – | – | – | – | – | – | – | – | – | – | – | readily selected | – | – | – |
| Cc1cn2c(-c3ccnc(Nc4ccc(N5CCNCC5)cc4)n3)c(-c3ccc(F)cc3)nc2cc1CN(C)C [ML4] | 107 nM | 25.3 nM | 107 nM | 186 nM | 84% | 31% | 2.8 | 3.71 ×10⁻⁶ cm/s | 0.45 nM | 231 nM | 1900 nM | – | – | – | 1.0 h | 56.5% | 61.6 nM |

Reference: article PMC5585294, “A potent series targeting the malarial cGMP-dependent protein kinase clears infection and blocks transmission” (Nature Communications, 2017)
